What was measured:
johnsongrass = assay: Test F preemergence; assay type: in vivo, Sorghum halepense
Description: (§1) Seeds of plant species selected from corn (Zea mays), soybean (Glycine max), velvetleaf (Abutilon theophrasti), lambsquarters (Chenopodium album), wild poinsettia (Euphorbia heterophylla), pigweed, palmer (palmer pigweed, Amaranthus palmeri), common waterhemp (Amaranthus rudis), surinam grass (Brachiaria decumbens), large crabgrass (Digitaria sanguinalis), crabgrass, Brazil (Brazilian crabgrass, Digitaria horizontalis), fall panicum (Panicum dichotomiflorum), giant foxtail (Setaria faberii), green foxtail (Setaria viridis), goosegrass (Eleusine indica), johnsongrass (Sorghum halepense), common ragweed (Ambrosia elation), barnyardgrass (Echinochloa crus-galli), southern sandbur (Cenchrus echinatus), arrowleaf sida (Sida rhombifolia), Italian ryegrass (Lolium multiflorum), dayflower, VA (Virginia (VA) dayflower, Commelina virginica), field bindweed (Convolvulus arvensis), cocklebur (common cocklebur, Xanthium strumarium), morningglory (Ipomoea coccinea), nightshade (eastern black nightshade, Solanum ptycanthum), kochia (Kochia scoparia), yellow nutsedge (Cyperus esculentus), and hairy beggarticks (Bidens pilosa), were planted into a silt loam soil and treated preemergence with test chemicals formulated in a non-phytotoxic solvent mixture which included a surfactant.
(§2) At the same time, plants from these crop and weed species and also horseweed (Canada horseweed, Conyza canadensis), smartweed (ladysthumb smartweed, Polygonum persicaria), waterhemp_RES1, (ALS & Triazine resistant common waterhemp, Amaranthus rudis), and waterhemp_RES2, (ALS & HPPD resistant common waterhemp, Amaranthus rudis) were treated with postemergence applications of test chemicals formulated in the same manner. Plants ranged in height from 2 to 18 cm for postemergence treatments (1- to 4-leaf stage). Treated plants and controls were maintained in a greenhouse for 14 to 21 days, after which time all species were compared to controls and visually evaluated. Plant response ratings, summarized in Table F, are based on a scale of 0 to 100 where 0 is no effect and 100 is complete control. A dash (-) response means no test result.

kochia [1] = assay: Test F preemergence; assay type: in vivo, Kochia scoparia
Description: as §1, §2

hairy beggarticks = assay: Test F preemergence; assay type: in vivo, Bidens pilosa
Description: as §1, §2

kochia [2] = assay: Test A preemergence; assay type: in vivo, Kochia scoparia
Method in brief: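 Greenhouse test in loam soil/sand blend; compounds formulated in non-phytotoxic solvent with surfactant, applied as preemergence directed soil spray or postemergence to plants 2–10 cm tall at one- to two-leaf stage. Injury rated visually versus untreated controls after approximately 10 days on a 0 (no effect) to 100 (complete control) scale.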

deadnettle = assay: Test D preemergence; assay type: in vivo, Lamium amplexicaule; conditions: scale 0 to 100
Description: (§3) Seeds of plant species selected from bluegrass (annual bluegrass, Poa annua), blackgrass (Alopecurus myosuroides), canarygrass (littleseed canarygrass, Phalaris minor), chickweed (common chickweed, Stellaria media), galium (catchweed bedstraw, Galium aparine), bromegrass, downy (downy bromegrass, Bromus tectorum), field poppy (Papaver rhoeas), field violet (Viola arvensis), foxtail, green (green foxtail, Setaria viridis), deadnettle (henbit deadnettle, Lamium amplexicaule), ryegrass, Italian (Italian ryegrass, Lolium multiflorum), kochia (Kochia scoparia), lambsquarters (Chenopodium album), oilseed rape (Brassica napus), pigweed (redroot pigweed, Amaranthus retroflexus), chamomile (scentless chamomile, Matricaria inodora), speedwell (bird's-eye speedwell, Veronica persica), barley, spring (spring barley, Hordeum vulgare), wheat, spring (spring wheat, Triticum aestivum), buckwheat, wild (wild buckwheat, Polygonum convolvulus), mustard, wild (wild mustard, Sinapis arvensis), oat, wild (wild oat, Avena fatua), radish, wild (wild radish, Raphanus raphanistrum), windgrass (Apera spica-venti), Russian thistle (Salsola kali), barley, winter (winter barley, Hordeum vulgare), and wheat, winter (winter wheat, Triticum aestivum) were planted into a silt loam soil and treated preemergence with test chemicals formulated in a non-phytotoxic solvent mixture which included a surfactant.
(§4) At the same time, these species were planted in pots containing Redi-Earth® planting medium (Scotts Company, 14111 Scottslawn Road, Marysville, Ohio 43041) comprising spaghnum peat moss, vermiculite, wetting agent and starter nutrients and treated with postemergence applications of the test chemicals formulated in the same manner. Plants ranged in height from 2 to 18 cm (1- to 4-leaf stage). Treated plants and controls were maintained in a controlled growth environment for 14 to 21 days after which time all species were compared to controls and visually evaluated. Plant response ratings, summarized in Table D, are based on a scale of 0 to 100 where 0 is no effect and 100 is complete control. A dash (-) response means no test result.

speedwell = assay: Test D preemergence; assay type: in vivo, Veronica persica; conditions: scale 0 to 100
Description: as §3, §4

buckwheat, wild = assay: Test D preemergence; assay type: in vivo, Polygonum convolvulus; conditions: scale 0 to 100
Description: as §3, §4

smartweed = assay: Test F postemergence; assay type: in vivo, Polygonum persicaria; conditions: 500 g ai/ha, scale 0 to 100
Description: as §1, §2

[3] = Preemergence, 250 g ai/ha, scale 0 to 100
[4] = Preemergence, 62 g ai/ha, scale 0 to 100
[5] = Preemergence, 125 g ai/ha, scale 0 to 100
[6] = preemergence, 16 g ai/ha, scale 0 to 100, 100 is complete control
[7] = 125 g ai/ha, visual injury, 0 to 100 scale, approx. 10 days
[8] = 500 g ai/ha, visual injury after approx. 10 days, 0 to 100 scale (0 no effect, 100 complete control)
[9] = Preemergence, 31 g ai/ha, scale 0 to 100
[10] = preemergence, 8 g ai/ha, scale 0 to 100, 100 is complete control

Compound	Plant response rating, Johnsongrass (johnsongrass; [4])	Plant response rating, Johnsongrass (johnsongrass; [5])	Plant response rating, Johnsongrass (johnsongrass; [6])	Plant response rating, Kochia (kochia [1]; [4])	Plant response rating, Kochia (kochia [1]; [5])	Plant response rating, Kochia (kochia [1]; [6])	Plant response rating, Hairy Beggarticks (hairy beggarticks; [4])	Plant response rating, Hairy Beggarticks (hairy beggarticks; [5])	Plant response rating, Hairy Beggarticks (hairy beggarticks; [6])	Plant response rating, Deadnettle (deadnettle; 31 g ai/ha)	Plant response rating, Deadnettle (deadnettle; 62 g ai/ha)	Plant response rating, Deadnettle (deadnettle; 125 g ai/ha)	Plant response rating, Deadnettle (deadnettle; 250 g ai/ha)	Plant response rating, Speedwell (speedwell; 62 g ai/ha)	Plant response rating, Speedwell (speedwell; 125 g ai/ha)	Plant response rating, Speedwell (speedwell; 250 g ai/ha)	Plant response rating, Buckwheat, Wild (buckwheat, wild; 31 g ai/ha)	Plant response rating, Johnsongrass (johnsongrass; [10])	Plant response rating, Kochia (kochia [1]; [10])	Plant response rating, Hairy Beggarticks (hairy beggarticks; [10])	other results
CCc1cc(C(=O)NC2CC2)nn1Cc1ccnc(OCC(F)(F)F)c1 [Compound 200]	20	70	0	70	90	20	0	0	0												Plant response rating, Johnsongrass (johnsongrass; [3]): 75; Plant response rating, Kochia (kochia [1]; [3]): 100; Plant response rating, Hairy Beggarticks (hairy beggarticks; [3]): 40
CCOc1cc(C(=O)NC2CC2)nn1Cc1ccnc(OC(F)F)c1 [Compound 133]																					Kochia plant response rating (kochia [2]; [7]): 100; Kochia plant response rating (kochia [2]; [8]): 100
CCc1cc(C(=O)NCC(F)(F)F)nn1Cc1ccnc(C(F)(F)F)c1 [Compound 78, 5-ethyl-N-(2,2,2-trifluoroethyl)-1-[[(2-trifluoromethyl)-4-pyridinyl]methyl]-1H-pyrazole-3-carboxamide]	95	100	20	100	100	65	35	80	20	10	10	25	100	100	100	100	95	20	40	0	Plant response rating, Speedwell (speedwell; 31 g ai/ha): 100; Plant response rating, Buckwheat, Wild (buckwheat, wild; 62 g ai/ha): 100; Plant response rating, Buckwheat, Wild (buckwheat, wild; 125 g ai/ha): 100; Plant response rating, Buckwheat, Wild (buckwheat, wild; 250 g ai/ha): 100; Plant response rating, Johnsongrass (johnsongrass; [9]): 30; Plant response rating, Kochia (kochia [1]; [9]): 100; Plant response rating, Hairy Beggarticks (hairy beggarticks; [9]): 25; Plant response rating, Smartweed (smartweed): 100
CCNC(=O)c1cc(CCCl)n(Cc2ccnc(C(F)(F)F)c2)n1 [Compound 179]	20	70		35	90		40	40										0	0	35	Plant response rating, Johnsongrass (johnsongrass; [9]): 20; Plant response rating, Kochia (kochia [1]; [9]): 30; Plant response rating, Hairy Beggarticks (hairy beggarticks; [9]): 40
CCc1cc(C(=O)NC(C)C)nn1Cc1ccnc(C(F)(F)F)c1 [Compound 103]										5	15	30	30	100	100	100	75				Plant response rating, Speedwell (speedwell; 31 g ai/ha): 70; Plant response rating, Buckwheat, Wild (buckwheat, wild; 62 g ai/ha): 100; Plant response rating, Buckwheat, Wild (buckwheat, wild; 125 g ai/ha): 100; Plant response rating, Buckwheat, Wild (buckwheat, wild; 250 g ai/ha): 100
Cc1cc(C(=O)NC(C)C)nn1Cc1ccnc(C(F)(F)F)c1 [Compound 197]	0	20	0	75	98	0	25	20	0									0	0	0	
CCNC(=O)c1cc(CC)n(Cc2ccnc(C(F)(F)F)c2)n1 [Compound 196]	35	80	0	85	100	40	15	35	0									0	15	0	
CCOc1cc(C(=O)NCC(F)(F)F)nn1Cc1ccnc(C(F)(F)F)c1 [Compound 104]	75	100	35	100	100		0	10	0									15	0	0	Plant response rating, Johnsongrass (johnsongrass; [9]): 60; Plant response rating, Kochia (kochia [1]; [9]): 25; Plant response rating, Hairy Beggarticks (hairy beggarticks; [9]): 0; Plant response rating, Smartweed (smartweed): 98
CCCc1cc(C(=O)NCC(F)(F)F)nn1Cc1cc(C(F)(F)F)nn1C [Compound 138]										85	100	100	100	100	100	100	45				Plant response rating, Buckwheat, Wild (buckwheat, wild; 62 g ai/ha): 50; Plant response rating, Buckwheat, Wild (buckwheat, wild; 125 g ai/ha): 70; Plant response rating, Buckwheat, Wild (buckwheat, wild; 250 g ai/ha): 100
CCONC(=O)c1cc(CC)n(Cc2cc(C(F)(F)F)no2)n1 [Compound 125]																					Kochia plant response rating (kochia [2]; [7]): 40; Kochia plant response rating (kochia [2]; [8]): 100
CCc1cc(C(=O)NCC(F)(F)F)nn1Cc1cc(OC(F)F)nn1C [Compound 206]																					Kochia plant response rating (0 to 100 scale) (kochia [2]; 125 g ai/ha, visual injury approx. 10 days after treatment): 50
CCOc1cc(C(=O)NC2CC2)nn1Cc1ccnc(C(F)(F)F)c1 [Compound 189]										90	100	100	100	100	100	100	100				Plant response rating, Buckwheat, Wild (buckwheat, wild; 62 g ai/ha): 100; Plant response rating, Buckwheat, Wild (buckwheat, wild; 125 g ai/ha): 100; Plant response rating, Buckwheat, Wild (buckwheat, wild; 250 g ai/ha): 100
